Here are results for ten compounds from patent US9266857B2, “Bicyclic AZA compounds as muscarinic M1 receptor agonists” (Heptares Therapeutics Limited, priority 2012, dated 2016).

Read-outs that look alike come from different tables or passages of the source.

Common to all, as to format: cell-based
The target of test [1] is T1, human muscarinic M1 receptor (Homo sapiens, UniProt P11229).
T1 construct: expressed in transfected cells
T1 sequence (P11229 1-460): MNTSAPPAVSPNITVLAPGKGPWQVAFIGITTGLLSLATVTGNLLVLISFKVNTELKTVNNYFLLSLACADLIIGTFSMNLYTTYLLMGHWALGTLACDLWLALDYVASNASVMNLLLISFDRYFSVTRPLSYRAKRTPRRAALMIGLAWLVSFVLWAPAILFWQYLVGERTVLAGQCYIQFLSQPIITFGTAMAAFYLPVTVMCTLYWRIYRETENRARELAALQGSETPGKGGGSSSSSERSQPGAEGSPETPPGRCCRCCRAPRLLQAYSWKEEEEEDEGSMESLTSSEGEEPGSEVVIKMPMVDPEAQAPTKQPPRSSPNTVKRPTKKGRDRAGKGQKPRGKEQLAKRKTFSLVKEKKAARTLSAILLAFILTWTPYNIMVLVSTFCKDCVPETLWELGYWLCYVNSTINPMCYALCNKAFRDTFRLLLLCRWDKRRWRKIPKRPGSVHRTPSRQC
In words: Alphascreen Surefire phospho-ERK1/2 functional assay, M1. Conditions: for EC50: phospho-ERK1/2, read-out: pEC50 M1 (converted); for Emax: CHO. The protocol: (§1) ERK1/2 phosphorylation is a downstream consequence of both Gq/11 and Gi/o protein coupled receptor activation, making it highly suitable for the assessment of M1, M3 (Gq/11 coupled) and M2, M4 receptors (Gi/o coupled), rather than using different assay formats for different receptor subtypes. CHO cells stably expressing the human muscarinic M1, M2, M3 or M4 receptor were plated (25K/well) onto 96-well tissue culture plates in MEM-alpha+10% dialysed FBS. Once adhered, cells were serum-starved overnight. Agonist stimulation was performed by the addition of 5 μL agonist to the cells for 5 min (37° C.). Media was removed and 50 μL of lysis buffer added. After 15 min, a 4 μL sample was transferred to 384-well plate and 7 μL of detection mixture added. Plates were incubated for 2 h with gentle agitation in the dark and then read on a PHERAstar plate reader.
(§2) pEC50 and Emax figures were calculated from the resulting data for each receptor subtype.
A general note: In Alpha technology, singlet oxygen from a donor bead excites a nearby acceptor bead.

Test [2] concerns the target T2, human muscarinic M2 receptor (Homo sapiens, UniProt P08172).
T2 construct: expressed in transfected cells
T2 sequence (P08172 1-466): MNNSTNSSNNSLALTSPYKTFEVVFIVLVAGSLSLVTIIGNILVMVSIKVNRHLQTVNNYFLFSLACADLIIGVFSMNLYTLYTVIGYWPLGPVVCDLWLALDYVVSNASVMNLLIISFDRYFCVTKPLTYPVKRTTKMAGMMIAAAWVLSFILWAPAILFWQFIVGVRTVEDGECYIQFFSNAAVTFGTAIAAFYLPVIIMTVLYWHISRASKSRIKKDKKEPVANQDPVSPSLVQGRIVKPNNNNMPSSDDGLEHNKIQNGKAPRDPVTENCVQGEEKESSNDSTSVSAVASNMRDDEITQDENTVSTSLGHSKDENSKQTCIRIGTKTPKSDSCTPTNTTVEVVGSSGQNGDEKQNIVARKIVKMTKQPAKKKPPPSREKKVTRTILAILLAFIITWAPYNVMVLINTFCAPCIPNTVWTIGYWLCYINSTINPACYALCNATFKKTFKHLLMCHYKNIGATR
The test can be described thus: Alphascreen Surefire phospho-ERK1/2 functional assay, M2. Conditions: for EC50: CHO cells stably expressing human M2, phospho-ERK1/2, read-out: pEC50 M2 (converted); for Emax: CHO, read-out: % Emax cf. ACh, M2. The protocol: as §1, §2

Test [3] deals with T3, human muscarinic M3 receptor (Homo sapiens, UniProt P20309).
T3 construct: expressed in transfected cells
T3 sequence (P20309 whole entry): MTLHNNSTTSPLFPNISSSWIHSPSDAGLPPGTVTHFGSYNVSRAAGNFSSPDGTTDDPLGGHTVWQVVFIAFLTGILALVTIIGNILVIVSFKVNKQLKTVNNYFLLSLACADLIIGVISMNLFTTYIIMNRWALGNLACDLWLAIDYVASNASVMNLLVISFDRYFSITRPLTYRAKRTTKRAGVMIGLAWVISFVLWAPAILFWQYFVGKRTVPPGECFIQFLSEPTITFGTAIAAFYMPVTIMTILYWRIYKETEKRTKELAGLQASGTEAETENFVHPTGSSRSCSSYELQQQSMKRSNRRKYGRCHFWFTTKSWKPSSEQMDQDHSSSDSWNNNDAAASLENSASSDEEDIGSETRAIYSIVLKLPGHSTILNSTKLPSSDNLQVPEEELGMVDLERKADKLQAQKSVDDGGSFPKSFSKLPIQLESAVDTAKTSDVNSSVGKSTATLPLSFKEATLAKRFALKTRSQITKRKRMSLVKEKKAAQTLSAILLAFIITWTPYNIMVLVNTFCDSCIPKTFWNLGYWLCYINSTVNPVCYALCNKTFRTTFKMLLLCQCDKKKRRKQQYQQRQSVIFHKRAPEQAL
In words: Alphascreen Surefire phospho-ERK1/2 functional assay, M3. As to conditions: for EC50: CHO cells stably expressing human M3, phospho-ERK1/2, read-out: pEC50 M3 (converted); for Emax: CHO, read-out: % Emax cf. ACh, M3. The protocol: as §1, §2

The target in test [4] is T4, human muscarinic M4 receptor (Homo sapiens, UniProt P08173).
T4 construct: expressed in transfected cells
T4 sequence (P08173 1-479): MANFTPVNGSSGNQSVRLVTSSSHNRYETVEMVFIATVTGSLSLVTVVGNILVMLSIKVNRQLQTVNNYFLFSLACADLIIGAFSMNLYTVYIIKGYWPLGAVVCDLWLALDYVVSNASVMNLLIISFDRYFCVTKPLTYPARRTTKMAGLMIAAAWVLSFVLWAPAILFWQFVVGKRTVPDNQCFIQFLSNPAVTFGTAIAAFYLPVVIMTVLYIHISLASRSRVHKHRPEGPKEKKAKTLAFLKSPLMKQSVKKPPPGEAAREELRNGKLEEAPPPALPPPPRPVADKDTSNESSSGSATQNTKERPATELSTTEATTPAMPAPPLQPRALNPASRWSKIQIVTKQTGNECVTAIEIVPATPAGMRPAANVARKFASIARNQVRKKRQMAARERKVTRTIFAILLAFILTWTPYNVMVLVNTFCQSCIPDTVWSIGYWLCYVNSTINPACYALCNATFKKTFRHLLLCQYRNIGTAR
The test can be described thus: Alphascreen Surefire phospho-ERK1/2 functional assay, M4. As to conditions: for EC50: phospho-ERK1/2, read-out: pEC50 M4 (converted); for Emax: CHO. The protocol: as §1, §2

[5] abbreviates: CHO cells stably expressing human M1.
[6] abbreviates: CHO cells stably expressing human M4.
The mark [7] stands for this setting: read-out: % Emax cf. ACh, M1, CHO cells stably expressing human M1, relative to ACh.
[8] abbreviates: read-out: % Emax cf. ACh, M4, CHO cells stably expressing human M4, relative to ACh.

As usually defined, the Emax is the greatest response seen or fitted, relative to the assay's reference. Consider `CCOC(=O)N1CC2CC(N3CCC(C(=O)NC4(C)CCC4)CC3)CC1C2` (mixture of isomers) [Example 7 - mixture of diastereomers, ethyl 3-{4-[(1-methylcyclobutyl)carbamoyl]piperidin-1-yl}-6-azabicyclo[3.2.1]octane-6-carboxylate], for which the EC50 is 0.055 µM in test [1] (setting [5]), more than 20 µM in test [2], more than 20 µM in test [3] and 0.447 µM in test [4] (setting [6]). The Emax in test [1] (read-out: % Emax cf. ACh, M1) amounted to 127%; in test [2], 10%; in test [3], 4%; in test [4] (read-out: % Emax cf. ACh, M4), 81%.
For `CCOC(=O)N1CC2CC(N3CCC(C(=O)NC4(C)CCC4)CC3)CC2C1` (mixture of isomers) [Example 8 - mixture of diastereomers, ethyl 5-{4-[(1-methylcyclobutyl)carbamoyl]piperidin-1-yl}hexahydrocyclopenta[c]pyrrole-2(1H)-carboxylate], the EC50 is 0.11 µM in test [1] (setting [5]), more than 20 µM in test [2], more than 20 µM in test [3] and 1.7 µM in test [4] (setting [6]). Also, the Emax is 118% in test [1] (read-out: % Emax cf. ACh, M1); 5% in test [2]; 8% in test [3]; 29% in test [4] (read-out: % Emax cf. ACh, M4).
In the case of `CCOC(=O)N1CCC2(CC(N3CCC(C(=O)NC4(C)CCC4)CC3)C2)C1` (mixture of isomers) [Example 9 - mixture of diastereomers, ethyl 2-{4-[(1-methylcyclobutyl)carbamoyl]piperidin-1-yl}-6-azaspiro[3.4]octane-6-carboxylate], the EC50 in test [1] (setting [5]) was 0.0513 µM; in test [2], more than 20 µM; in test [3], more than 20 µM; in test [4] (setting [6]), 0.38 µM. For the same compound, the Emax in test [1] (read-out: % Emax cf. ACh, M1) is 142%; in test [2], 6%; in test [3] it was 5%; in test [4] (read-out: % Emax cf. ACh, M4) it was 66%.
Regarding `CC#CCOC(=O)N1CCC2(CC(N3CCC(C(=O)NC4(C)CCC4)CC3)C2)C1` (mixture of isomers) [Example 10 - mixture of diastereomers, but-2-yn-1-yl 2-{4-[(1-methylcyclobutyl)carbamoyl]piperidin-1-yl}-6-azaspiro[3.4]octane-6-carboxylate], the EC50 in test [1] (setting [5]) is 0.155 µM; in test [2], more than 20 µM; in test [3], more than 20 µM; in test [4] (setting [6]), 0.339 µM. The maximal effect (Emax) in test [1] (read-out: % Emax cf. ACh, M1) turned out to be 93%; in test [2] it was 10%; in test [3], 3%; in test [4] (read-out: % Emax cf. ACh, M4), 42%.
On to `CCOC(=O)N1CCC2(CC(N3CCC(F)(C(=O)NC4(C)CCC4)CC3)C2)C1` (mixture of isomers) [Example 11 - mixture of diastereomers, ethyl 2-{4-fluoro-4-[(1-methylcyclobutyl)carbamoyl]piperidin-1-yl}-6-azaspiro[3.4]octane-6-carboxylate], for which the EC50 in test [1] (setting [5]) was 0.0282 µM; in test [2] it was more than 20 µM; in test [3], more than 20 µM; in test [4] (setting [6]), 0.204 µM. Also, the maximal response (Emax) in test [1] (read-out: % Emax cf. ACh, M1) amounted to 112%; in test [2] it was 6%; in test [3], 4%; in test [4] (read-out: % Emax cf. ACh, M4) it was 77%.
Turning to `CCOC(=O)N1CC2(CCC(N3CCC(C(=O)NC4(C)CCC4)CC3)C2)C1` (racemic) [Example 12 - racemic, ethyl 6-{4-[(1-methylcyclobutyl)carbamoyl]piperidin-1-yl}-2-azaspiro[3.4]octane-2-carboxylate], the EC50 is 0.0355 µM in test [1] (setting [5]), more than 20 µM in test [2], more than 20 µM in test [3] and 0.0537 µM in test [4] (setting [6]). For the same compound, the Emax in test [1] (read-out: % Emax cf. ACh, M1) was 141%; in test [2], 8%; in test [3], 78%; in test [4] (read-out: % Emax cf. ACh, M4), 49%.
Consider `C#CCOC(=O)N1CC2(CCC(N3CCC(C(=O)NC4(C)CCC4)CC3)C2)C1` (racemic) [Example 13 - racemic, prop-2-yn-1-yl 6-{4-[(1-methylcyclobutyl)carbamoyl]piperidin-1-yl}-2-azaspiro[3.4]octane-2-carboxylate], for which the EC50 in test [1] (setting [5]) was 0.0158 µM; in test [2], more than 20 µM; in test [3], more than 20 µM; in test [4] (setting [6]), 0.0525 µM. Also, the Emax was 139% in test [1] (read-out: % Emax cf. ACh, M1); 7% in test [2]; 39% in test [3]; 44% in test [4] (read-out: % Emax cf. ACh, M4).
For the compound `CCOC(=O)N1C2CCC1CC(N1CCC(C(=O)NC3(C)CCC3)CC1)C2` (single isomer, unassigned) [Example 1 - Isomer 2, ethyl 3-{4-[(1-methylcyclobutyl)carbamoyl]piperidin-1-yl}-8-azabicyclo[3.2.1]octane-8-carboxylate], the EC50 is 0.0417 µM in test [1] (setting [5]), more than 20 µM in test [2], more than 20 µM in test [3] and 0.17 µM in test [4] (setting [6]). In addition, the “% Emax cf. ACh, M1” value in test [1] (CHO cells stably expressing human M1, relative to ACh) was 102%. For the same compound, the Emax was determined as 0% in test [2] and 18% in test [3]. Also, the “% Emax cf. ACh, M4” value in test [4] (CHO cells stably expressing human M4, relative to ACh, listed as 1 - Isomer 2) turned out to be 98%.
Consider `C#CCOC(=O)N1C2CCC1CC(N1CCC(C(=O)NC3(C)CCC3)CC1)C2` (single isomer, unassigned) [Example 2 - Isomer 1, prop-2-yn-1-yl 3-{4-[(1-methylcyclobutyl)carbamoyl]piperidin-1-yl}-8-azabicyclo[3.2.1]octane-8-carboxylate], for which the EC50 is 0.331 µM in test [1] (setting [5]), more than 20 µM in test [2], more than 20 µM in test [3] and more than 20 µM in test [4] (setting [6]). For the same compound, the Emax in test [1] (setting [7]) is 94%; in test [2] it was 14%; in test [3], 7%; in test [4] (setting [8]), 11%.
For the compound `CC#CCOC(=O)N1C2CCC1CC(N1CCC(C(=O)NC3(C)CCC3)CC1)C2` (single isomer, unassigned) [Example 3 - Isomer 2, but-2-yn-1-yl 3-{4-[(1-methylcyclobutyl)carbamoyl]piperidin-1-yl}-8-azabicyclo[3.2.1]octane-8-carboxylate], the EC50 in test [1] (setting [5]) was 0.363 µM; in test [2], more than 20 µM; in test [3], more than 20 µM; in test [4] (setting [6]) it was 0.851 µM. The Emax was 109% in test [1] (setting [7]), 10% in test [2], 2% in test [3] and 65% in test [4] (setting [8]).
